Reference: article PMC2785468, “Androgen Receptor Mutations Associated with Androgen Insensitivity Syndrome: A High Content Analysis Approach Leading to Personalized Medicine” (PLoS ONE, 2009)

Molecular target: T1, AR-R840C (Homo sapiens, UniProt P10275, R841C)
T1 construct: expressed in transfected cells
T1 sequence (P10275 1-920 R841C): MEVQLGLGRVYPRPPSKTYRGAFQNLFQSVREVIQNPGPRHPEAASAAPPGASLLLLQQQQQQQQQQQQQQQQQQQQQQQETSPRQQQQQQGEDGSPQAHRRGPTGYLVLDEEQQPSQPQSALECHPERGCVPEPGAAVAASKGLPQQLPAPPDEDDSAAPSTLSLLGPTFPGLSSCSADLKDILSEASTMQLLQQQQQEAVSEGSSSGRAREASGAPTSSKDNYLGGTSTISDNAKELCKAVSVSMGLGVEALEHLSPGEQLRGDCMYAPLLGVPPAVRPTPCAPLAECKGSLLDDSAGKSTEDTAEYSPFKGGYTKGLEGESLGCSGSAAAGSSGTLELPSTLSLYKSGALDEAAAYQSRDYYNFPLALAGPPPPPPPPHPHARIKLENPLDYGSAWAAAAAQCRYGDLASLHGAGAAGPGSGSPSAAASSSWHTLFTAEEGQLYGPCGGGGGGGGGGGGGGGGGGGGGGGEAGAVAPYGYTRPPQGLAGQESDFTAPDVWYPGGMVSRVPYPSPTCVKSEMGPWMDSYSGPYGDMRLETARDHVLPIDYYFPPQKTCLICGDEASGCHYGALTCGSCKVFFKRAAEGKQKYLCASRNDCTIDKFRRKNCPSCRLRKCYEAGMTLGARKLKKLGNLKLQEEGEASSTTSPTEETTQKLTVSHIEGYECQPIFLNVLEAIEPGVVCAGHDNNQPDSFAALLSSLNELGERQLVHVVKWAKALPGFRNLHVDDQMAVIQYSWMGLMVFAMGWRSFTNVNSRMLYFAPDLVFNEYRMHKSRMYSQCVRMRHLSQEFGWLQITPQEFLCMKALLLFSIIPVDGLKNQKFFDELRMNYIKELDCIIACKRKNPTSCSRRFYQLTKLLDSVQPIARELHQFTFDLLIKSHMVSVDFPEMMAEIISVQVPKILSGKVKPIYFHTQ
Type: cell-based
Method: To determine the global effect of the various AIS mutations on AR signaling, each was analyzed using HCA. This technology allows simultaneous quantification of AR protein expression, nuclear translocation, subnuclear patterning, and transcriptional activity. The analysis was done in HeLa cell lines stably transfected with wild type or mutant ARs fused with green fluorescent protein, or using AR immunofluorescence in primary cultures of genital skin fibroblasts generated from foreskin biopsies of historical AIS patients, or of normal neonates undergoing circumcision at birth. To prevent the effects of receptor over-expression, stable HeLa cells were carefully selected to express AR levels similar to LNCaP as previously described. Prior to ligand treatment, HeLa cells were transfected with the pARR2PB-dsRED2skl reporter plasmid, consisting of the AR responsive promoter ARR2PB [31] driving expression of the red fluorescent protein reporter dsRED2skl engineered to target peroxisomes.
For studies utilizing HeLa GFP-AR cell lines, twenty-four hours before transfection with pARR2PB-dsRED2skl, cells were plated onto 100 mm plastic dishes in medium supplemented with 5% charcoal-stripped and dialyzed-FBS. Transient introduction of the pARR-2PB-dsRED2skl reporter construct was performed using 6.0 µg reporter plasmid and 6.0 µg carrier DNA (BlueScript, Stratagene, San Diego, CA) using Transfectin (Biorad) following standard protocols. After 8-hour incubation, DNA/lipid complexes were removed. Cells were then trypsinized and replated at 10,000 cells per well in Nunc poly-D-lysine treated 96-well optical glass bottom plates and incubated an additional 12 hours to allow for cell adhesion. […] Compound dilutions and final addition to multi-well plates were performed using a Beckman Biomek NX robotic platform to ensure repeatability from experiment to experiment. After incubation was complete, using the Biomek NX robot, plates were washed with PBS and fixed for 20 min at RT in 4% formaldehyde prepared in CSK buffer (80 mM potassium PIPES, pH 6.8, 5 mM EGTA, 2 mM MgCl2). After fixation, cells were briefly permeabilized (5 min) with 0.5% Triton-X and prepared for imaging by washing in PBS, aspirating the washed solution, and adding a 1 ng/ml DAPI solution to stain DNA and a generic protein stain (CellMask, Invitrogen) to facilitate cell and nuclear image segmentation. Cells were imaged in PBS.
Cells were imaged using the Cell Lab IC-100 Image Cytometer (IC-100; Beckman Coulter) platform that consists of 1) Nikon Eclipse TE2000-U Inverted Microscope (Nikon; Melville, NY); 2) Chroma 82000 triple band filter set (Chroma; Brattleboro, VT); 3) an imaging camera: Hamamatsu ORCA-ER Digital CCD camera (Hamamatsu; Bridgewater, NJ); and 4) a focusing camera: Photonics COHU Progressive scan camera (Photonics; Oxford, MA). […] In general, 49 to 64 images were captured per well for image analysis.
While our initial AR studies using HTM were based upon CytoShop (Beckman-Coulter), [15], [33], these approaches were refined in the current work with the more robust server-client Pipeline Pilot image analysis platform (Basic and Advanced Imagine Collections, Pipeline Pilot 7.5, Accelrys, San Diego). Initially, the background signal was removed from all images using plate- and channel-specific correction images, generated by the sum projection of >600 randomly selected images for each channel from the image set. This allows for a pixel-by-pixel background subtraction that compensates any consistent uneven background artifacts in the image set. Furthermore, users are able to customize the degree of background subtraction by applying a multiplier to each correction image, useful for identification of objects such as nuclei or cell borders. After background subtraction, nuclear masks were generated using a combination of non-linear least squares and watershed-from-markers image manipulations of the DAPI images (Fig. 1B).

C[C@@H]1CC2=CC(=O)CC[C@@H]2[C@H]2CC[C@@]3(C)[C@@H](CC[C@]3(C)O)[C@@H]21 [Mb, Mibolerone]
hyperspeckling (HeLa AR-R840C): 8 fold increase
transcriptional activation (HeLa AR-R840C): 11 fold
increase in nuclear translocation (HeLa AR-R840C, vs untreated): 29%
Nuclear Translocation, Max (HeLa R840C, % signal present in the nucleus): 63.7±1.1%
Hyperspeckling, Max (HeLa R840C, absolute numerical measurement): 269±20
Transcriptional Activity, Max (HeLa R840C, pARR2PB-dsRED2skl reporter, absolute numerical measurement): 35.3±1.4
